In ChEMBL document CHEMBL5038635, “Discovery of Salidroside-Derivated Glycoside Analogues as Novel Angiogenesis Agents to Treat Diabetic Hind Limb Ischemia” (J Med Chem, 2022):
The source made the active and inactive calls. The calls are words filed in the database; no cut-off is given here.

Columns and labels:
[1] = test system: MOVAS-1; test: (§1) Induction proliferation of mouse MOVAS-1 cells assessed as increase in number of EdU-positive cells using conditioned medium of mouse C2C12 cells with silenced HIF-1alpha treated at 30 uM under hyperglycemic condition for 12 hrs followed by hypoxia for 24 hrs in presence of VEGFR inhibitor Ki8751 by EdU-incorporation assay; type: functional, cell-based; conditions: time 36.0 hrs
[2] = test system: C2C12; test: Angiogenic activity in mouse C2C12 cells assessed as reversal of hyperglycemia-induced reduction in total cell number at 7.5 uM measured after 24 hrs by EdU-incorporation assay; type: functional, cell-based
[3] = Stability in rat plasma assessed as compound remaining at 6.25 to 25 mg/L after 12 hrs by HPLC analysis; type: ADME, cell-free; conditions: at 6.25 to 25 µg/mL, dose 6.25-25 mg/L, read-out: Stability
[4] = test system: C2C12; test: Increase in VEGF-A protein expression level in […] mouse C2C12 cells at 30 uM by Western blot analysis; type: functional, cell-based
[5] = test system: C2C12; test: Reversal of hyperglycemia-induced PDGF-BB protein level reduction in mouse C2C12 cells measured at 30 uM by ELISA; type: functional, cell-based
[6] = test system: HUVEC; test: as §1, with “human HUVEC” for “mouse MOVAS-1”; type: functional, cell-based; conditions: time 36.0 hrs
[7] = Metabolic stability in rat leg muscle homogenates assessed as compound remaining after 30 min by HPLC analysis; type: ADME, tissue-based, muscle of leg; conditions: read-out: Stability
[8] = test system: C2C12; test: Apoptotic rate in hyperglycemia-treated mouse C2C12 cells assessed as late apoptotic cells at 15 uM by AnnexinV-FITC/PI staining based flow cytometric analysis (reference value: 10.44 %); type: functional
[9] = test system: C2C12; test: Reversal of hyperglycemia-induced VEGF-A protein level reduction in mouse C2C12 cells measured at 30 uM by Western blot analysis; type: functional, cell-based
[10] = test system: C2C12; test: Upregulation of ANG1 protein expression in mouse C2C12 cells at 30 uM by Western blot analysis; type: functional, cell-based
[11] = test system: C2C12; test: Upregulation of FGF18 protein expression in mouse C2C12 cells at 30 uM by Western blot analysis; type: functional, cell-based
[12] = Toxicity in diabetic HLI C57BL/6 mouse model assessed as liver pathology at 30 mg/kg, IM administered by HE staining based assay; type: organism-based; conditions: in vivo
[13] = test system: C2C12; test: Effect on PHD1 mRNA expression in mouse C2C12 cells at 30 uM by qRT-PCR analysis; type: functional, cell-based
[14] = test system: Mus musculus; test: Antidiabetic activity in diabetic HLI C57BL/6 mouse model assessed as increase in blood perfusion recovery at 30 mg/kg administered intramuscularly measured after 14 days; type: functional; conditions: time 14 day
[15] = test system: MOVAS-1; test: Angiogenesis activity in mouse MOVAS-1 assessed as increase of cell migration using conditioned medium of mouse C2C12 cells with silenced HIF-1alpha treated at 30 uM under hyperglycemic condition for 12 hrs followed by hypoxia for 24 hrs by crystal violet dye based transwell assay; type: functional; conditions: time 36.0 hrs
[16] = test system: Mus musculus; test: Angiogenic activity in diabetic HLI C57BL/6 mouse model assessed as increase in number of PECAM-1/alpha-SMA double-positive cells at 30 mg/kg, im administered for 21 days followed by surgery by immunofluorescence analysis; type: functional, organism-based; conditions: time 21.0 day
[17] = test system: Mus musculus; test: Angiogenic activity in diabetic HLI C57BL/6 mouse model assessed as increase in number of alpha-SMA-positive cells at 30 mg/kg, im administered for 21 days followed by surgery by immunofluorescence analysis; type: functional, organism-based; conditions: time 21.0 day
[18] = test system: C2C12; test: Angiogenic activity in mouse C2C12 cells assessed as accumulation VEGF-A protein expression at 300 uM by Western blot analysis; type: functional, cell-based
[19] = test system: C2C12; test: Angiogenic activity in mouse C2C12 cells assessed as reversal of hyperglycemia-induced reduction in total cell number at 30 uM measured after 24 to 36 hrs by EdU-incorporation assay; type: functional, cell-based; conditions: time 24-36 hrs
[20] = test system: Mus musculus; test: Antidiabetic activity in diabetic HLI C57BL/6 mouse model assessed as increase in blood perfusion recovery at 30 mg/kg administered intramuscularly measured after 21 days; type: functional; conditions: time 21 day
[21] = test system: Mus musculus; test: Angiogenic activity in diabetic HLI C57BL/6 mouse model assessed as VEGF-A protein expression at 30 mg/kg, im administered for 21 days followed by surgery by Western blot analysis; type: functional, organism-based; conditions: time 21.0 day
[22] = test system: MOVAS-1; test: Angiogenesis activity in mouse MOVAS-1 cells assessed as suppression of cell migration using conditioned medium of mouse C2C12 cells treated at 30 uM under hyperglycemic condition for 12 hrs followed by hypoxia for 24 hrs by crystal violet dye based transwell assay; type: functional; conditions: time 36.0 hrs
[23] = test system: C2C12; test: Apoptotic rate in hyperglycemia-treated mouse C2C12 cells assessed as late apoptotic cells at 30 uM by AnnexinV-FITC/PI staining based flow cytometric analysis (reference value: 10.44 %); type: functional
[24] = test system: C2C12; test: Induction proliferation of mouse C2C12 cells assessed as increase in number of EdU-positive cells at 30 uM under normoglycemic condition by EdU-incorporation assay; type: functional, cell-based
[25] = Toxicity in diabetic HLI C57BL/6 mouse model assessed as spleen pathology at 30 mg/kg, IM administered by HE staining based assay; type: organism-based; conditions: in vivo
[26] = test system: C2C12; test: Induction proliferation of mouse C2C12 cells with silenced HIF-1alpha at 30 uM pretreated with compound in hyperglycemia condition for 12 hr followed by hypoxia condition for 24 hrs by EdU-incorporation assay; type: functional, cell-based; conditions: time 36.0 hrs
[27] = test system: HUVEC; test: Angiogenic activity in human HUVEC cells assessed as suppression of F-actin polymerization at 30 uM using conditioned medium of mouse C2C12 cells treated at 30 uM under hyperglycemic condition for 12 hrs followed by hypoxia for 12 hrs by phalloidin staining based confocal microscopy; type: functional, cell-based; conditions: time 24.0 hrs
[28] = Toxicity in diabetic HLI C57BL/6 mouse model assessed as heart pathology at 30 mg/kg, IM administered by HE staining based assay; type: organism-based; conditions: in vivo
[29] = test system: C2C12; test: Upregulation of PIK3CG protein expression in mouse C2C12 cells at 30 uM by Western blot analysis; type: functional, cell-based
[30] = test system: C2C12; test: Effect on PHD2 mRNA expression in mouse C2C12 cells at 30 uM by qRT-PCR analysis; type: functional, cell-based
[31] = test system: HUVEC; test: Induction proliferation of human HUVEC cells assessed as increase in number of EdU-positive cells using conditioned medium of mouse C2C12 cells treated at 30 uM under hyperglycemic condition for 12 hrs followed by hypoxia for 24 hrs by EdU-incorporation assay; type: functional; conditions: time 36 hrs
[32] = test system: C2C12; test: Upregulation of […] protein expression in mouse C2C12 cells at 30 uM by Western blot analysis; type: functional, cell-based
[33] = test system: C2C12; test: Induction proliferation of mouse C2C12 cells at 30 uM pretreated with compound in hyperglycemia condition for 12 hr followed by hypoxia condition for 24 hrs presence of MeOE2 inhibitor by EdU-incorporation assay; type: functional, cell-based; conditions: time 36.0 hrs
[34] = test system: C2C12; test: Angiogenic activity in mouse C2C12 cells assessed as reversal of hyperglycemia-induced reduction in total cell number measured after 12 to 36 hrs; type: functional, cell-based
[35] = test system: C2C12; test: Induction proliferation of mouse C2C12 cells assessed as suppression of apoptotic rate at 30 uM under normoglycemic condition by Annexin V/PI staining based Flowcytometry method; type: functional, cell-based
[36] = test system: C2C12; test: Apoptotic rate in hyperglycemia-treated mouse C2C12 cells assessed as viable cells at 15 uM by AnnexinV-FITC/PI staining based flow cytometric analysis (reference value: 81.90 %); type: functional; conditions: read-out: Activity

With `COc1ccc(Cc2cccc(O[C@@H]3O[C@H](CO)[C@@H](O)[C@H](O)[C@H]3O)c2)cc1` the Activity [1] was “inactive”, the Activity [2] was “Active” and the remaining at 12 h [3] was 98.5%. For the same molecule, the Activity [4] was “inactive”, the Activity [5] was “Active” and the Activity [6] was “inactive”. For the same molecule, the remaining at 0.5 h [7] was 99%, the Activity [8] was 7.61% and the Activity [9] was “Active”. For the same molecule, the Activity [10] was “Active”, the Activity [11] was “Active” and the Activity [12] was “Non-Toxic”. The Activity [13] was “inactive”, the Activity [14] was 70% and the Activity [15] was “Active”. For the same molecule, the Activity [16] was “Active”, the Activity [17] was “Active” and the inhibition [18] was “Active”. The Activity [19] was “inactive”, the Activity [20] was 80% and the Activity [21] was “Active”. For the same molecule, the Activity [22] was “Active”, the Activity [23] was 3.94% and the Activity [24] was “Active”. The Activity [25] was “Non-Toxic”, the Activity [26] was “inactive” and the Activity [27] was “Active”. The Activity [28] was “Non-Toxic”, the Activity [29] was “Active” and the Activity [30] was “inactive”. The “fold change (FC)” value [31] was 2, the Activity [32] was “Active” and the Activity [33] was “inactive”. For the same molecule, the EC50 [34] was 12.7 µM, the Activity [35] was “Active” and the viability at 15 µM [36] was 88.9%.
